Earlier results on 1 substance are cited in US20070282422A1, “Medical devices and methods for local delivery of elastin-stabilizing compounds” (Cook Incorporated, priority 2006, published 2007).

The subject of data set [1] is elastin in ascending porcine aorta. The following applies: tannic concentrations of about 0.3%.
Another data set concerns aortic elastin. The following applies: lyophilized aortic elastin strips in buffered solutions of 0.3%-0.8% tannic acid.

Take Tannic acid: the elastin stabilization result in data set [1] is reported as “elastin stabilization”. Further, the “reduced the susceptibility of the elastin towards elastase” value in the data set on aortic elastin is “about 50%”.
